# Experimental data from patent US10105357B2, “Indication of antibiotic drugs for preparation of cancer inhibition pharmaceutical composition” (LAUNX BIOMEDICAL CO., LTD., priority 2014, dated 2018).
# Read-outs that look alike come from different tables or passages of the source.
# Assays:
# [1] = system: TSGH-8301 (Urinary Bladder Carcinoma); experiment: Cell viability analysis, bladder cancer TSGH-8301; assay type: cell-based, human; conditions: Homo sapiens
# [2] = system: MCF7 (Mammary Gland, Adenocarcinoma); experiment: Cell viability analysis, breast cancer MCF7; assay type: cell-based, human; conditions: Homo sapiens
# [3] = system: A375 (Amelanotic Melanoma); experiment: Cell viability analysis, skin cancer A375; assay type: cell-based, human; conditions: Homo sapiens
# [4] = system: HCT116 (p53+) (Colorectal Carcinoma); experiment: cells; conditions: Homo sapiens, HCT-116, 72 h, read-out: cell viability (survival rate), HCT116
# [5] = system: HL-60 (Acute Promyelocytic Leukemia); experiment: Cell viability analysis, leukemia HL-60; assay type: cell-based, human; conditions: Homo sapiens
# [6] = system: HI650 (Lung Adenocarcinoma); experiment: Cell viability analysis, lung cancer HI650; assay type: cell-based, human; conditions: Homo sapiens
# [7] = system: HeLa (Cervix Adenocarcinoma); experiment: Cell viability analysis, cervical cancer HeLa; assay type: cell-based, human; conditions: Homo sapiens, HeLa
# [8] = system: MKN-45 (Gastric Adenocarcinoma); experiment: Cell viability analysis, gastric cancer MKN-45; assay type: cell-based, human; conditions: Homo sapiens
# [9] = system: A549 (Lung Adenocarcinoma); experiment: Cell viability analysis, lung cancer A549; assay type: cell-based, human; conditions: Homo sapiens
# [10] = system: PC3 (p53−) (Prostate Adenocarcinoma); experiment: Cell viability analysis, prostate cancer PC3; assay type: cell-based, human; conditions: Homo sapiens
# [11] = system: AGS (Gastric Adenocarcinoma); experiment: Cell viability analysis, gastric cancer AGS; assay type: cell-based, human; conditions: Homo sapiens
# [12] = system: LoVo (Colorectal Adenocarcinoma); experiment: Cell viability analysis, colon cancer LoVo; assay type: cell-based, human; conditions: Homo sapiens, LoVo
# [13] = system: HepG2 (Hepatocellular Carcinoma); experiment: Cell viability analysis, hepatic cancer HepG2; assay type: cell-based, human; conditions: Homo sapiens, HepG2, 72 h
# [14] = system: SAS (Tongue squamous cell carcinoma); experiment: Cell viability analysis, tongue cancer SAS; assay type: cell-based, human; conditions: Homo sapiens, 72 h, read-out: The results of antibiotic drug inhibiting cancer cell lines (cell viability analysis), SAS
# NIH: OVCAR-3 = experiment: Cell viability analysis, ovarian cancer NIH: OVCAR-3; assay type: cell-based, human; conditions: Homo sapiens, OVCAR-3, 72 h, read-out: The results of antibiotic drug inhibiting cancer cell lines (cell viability analysis), NIH-OVCAR-3
# [15] = system: MDA-MB-231 (Mammary Gland, Adenocarcinoma); experiment: Cell viability analysis, breast cancer MDA-MB-231; assay type: cell-based, human; conditions: Homo sapiens, MDA-MB-231, 72 h, read-out: The results of antibiotic drug inhibiting cancer cell lines (cell viability analysis), MDA-MB231
# TOV-21G = experiment: Cell viability analysis, ovarian cancer TOV-21G; assay type: cell-based, human; conditions: Homo sapiens, TOV21G, 72 h, read-out: The results of antibiotic drug inhibiting cancer cell lines (cell viability analysis), TOV-21G
# AsPC-1 = experiment: Cell viability analysis, pancreatic cancer AsPC-1; assay type: cell-based, human; conditions: Homo sapiens, ASPC1, 72 h, read-out: The results of antibiotic drug inhibiting cancer cell lines (cell viability analysis), AsPC-1
# [16] = system: C-33A (Cervical carcinoma); experiment: Cell viability analysis, cervical cancer C-33A; assay type: cell-based, human; conditions: Homo sapiens, C-33-A, 72 h, read-out: The results of antibiotic drug inhibiting cancer cell lines (cell viability analysis), C-33A
# BxPC-3 = experiment: Cell viability analysis, pancreatic cancer BxPC-3; assay type: cell-based, human; conditions: Homo sapiens, BXPC-3, 72 h, read-out: The results of antibiotic drug inhibiting cancer cell lines (cell viability analysis), BxPC-3
# cancer cell lines = experiment: Cell viability analysis (WST-1) on cancer cell lines; assay type: cell-based, human; conditions: drug 10 μM, 72 hours, WST-1; Table 3
# T24 = experiment: Cell viability analysis, bladder cancer T24; assay type: cell-based, human; conditions: Homo sapiens, T-24, 72 h, read-out: The results of antibiotic drug inhibiting cancer cell lines (cell viability analysis), T24
# [17] = system: BCC (basal cell carcinoma); experiment: Cell viability analysis, skin cancer BCC; assay type: cell-based, human; conditions: Homo sapiens, 72 h, read-out: The results of antibiotic drug inhibiting cancer cell lines (cell viability analysis), BCC
# [18] = system: HCT116 (p53+) (Colorectal Carcinoma)
# U-2OS = experiment: Cell viability analysis, osteosarcoma U-2OS; assay type: cell-based, human; conditions: Homo sapiens, U2OS, 72 h, read-out: The results of antibiotic drug inhibiting cancer cell lines (cell viability analysis), U2OS
# [19] = system: 786-O (Renal adenocarcinoma); experiment: Cell viability analysis, renal cancer 786-O; assay type: cell-based, human; conditions: Homo sapiens, 786-0, 72 h, read-out: The results of antibiotic drug inhibiting cancer cell lines (cell viability analysis), 786-O
# [20] = system: Hep3B (hepatocellular carcinoma); experiment: Cell viability analysis, hepatic cancer Hep3B; assay type: cell-based, human; conditions: Homo sapiens, Hep3B, 72 h, read-out: The results of antibiotic drug inhibiting cancer cell lines (cell viability analysis), Hep3B
# [21] = 72 h, read-out: cell viability (survival rate), TSGH, drug 10 μM, 72 hours, WST-1, OD450 nm
# [22] = read-out: cell viability (survival rate), HepG2, drug 10 μM, 72 hours, WST-1, OD450 nm
# [23] = A-375, 72 h, read-out: cell viability (survival rate), A375, drug 10 μM, 72 hours, WST-1, OD450 nm
# [24] = HL-60, 72 h, read-out: cell viability (survival rate), HL-60, drug 10 μM, 72 hours, WST-1, OD450 nm
# [25] = NCI-H1650, 72 h, read-out: cell viability (survival rate), H1650, drug 10 μM, 72 hours, WST-1, OD450 nm
# [26] = A549, 72 h, read-out: cell viability (survival rate), A549, drug 10 μM, 72 hours, WST-1, OD450 nm
# [27] = 72 h, read-out: cell viability (survival rate), PC3, drug 10 μM, 72 hours, WST-1, OD450 nm
# [28] = 72 h, read-out: cell viability (survival rate), AGS, drug 10 μM, 72 hours, WST-1, OD450 nm
# [29] = 72 h, read-out: cell viability (survival rate), LoVo, drug 10 μM, 72 hours, WST-1, OD450 nm
compound,measurement,setting,value
c1ccc2c(c1)sc1ccccc12 [Dibenzothiophene],viability at 10 µM,"[1]; drug 10 μM, 72 hours, WST-1, OD450 nm, read-out: cell viability (survival rate), TSGH",88.2%
same,viability at 10 µM,"[2]; MCF7, drug 10 μM, 72 hours, WST-1, OD450 nm, read-out: cell viability (survival rate), MCF7",71.4%
same,viability at 10 µM,"[3]; A-375, drug 10 μM, 72 hours, WST-1, OD450 nm, read-out: cell viability (survival rate), A375",70.6%
same,viability at 10 µM,[4],52.7%
same,viability at 10 µM,"[5]; HL-60, drug 10 μM, 72 hours, WST-1, OD450 nm, read-out: cell viability (survival rate), HL-60",110%
same,viability at 10 µM,"[6]; NCI-H1650, drug 10 μM, 72 hours, WST-1, OD450 nm, read-out: cell viability (survival rate), H1650",76.1%
same,viability at 10 µM,"[7]; drug 10 μM, 72 hours, WST-1, OD450 nm, read-out: cell viability (survival rate), HeLa",94.6%
same,viability at 10 µM,"[8]; MKN-45, drug 10 μM, 72 hours, WST-1, OD450 nm, read-out: cell viability (survival rate), MKN-45",92.1%
same,viability at 10 µM,"[9]; A549, drug 10 μM, 72 hours, WST-1, OD450 nm, read-out: cell viability (survival rate), A549",62.3%
same,viability at 10 µM,"[10]; drug 10 μM, 72 hours, WST-1, OD450 nm, read-out: cell viability (survival rate), PC3",80.2%
same,viability at 10 µM,"[11]; drug 10 μM, 72 hours, WST-1, OD450 nm, read-out: cell viability (survival rate), AGS",59.2%
same,viability at 10 µM,"[12]; drug 10 μM, 72 hours, WST-1, OD450 nm, read-out: cell viability (survival rate), LoVo",79.7%
O=c1ccc2ccccc2o1 [Coumarin],viability at 10 µM,[1]; [21],108%
same,viability at 10 µM,[13]; [22],100%
same,viability at 10 µM,[3]; [23],157%
same,viability at 10 µM,[4],93.7%
same,viability at 10 µM,[5]; [24],102%
same,viability at 10 µM,[6]; [25],95.6%
same,viability at 10 µM,"[7]; 72 h, read-out: cell viability (survival rate), HeLa, drug 10 μM, 72 hours, WST-1, OD450 nm",96.5%
same,viability at 10 µM,[9]; [26],91.8%
same,viability at 10 µM,[10]; [27],86.3%
same,viability at 10 µM,[11]; [28],98.5%
same,viability at 10 µM,[12]; [29],88.3%
CCCCCCCCCCCCCCCCO [1-Hexadecanol],viability at 10 µM,"[13]; drug 10 μM, 72 hours, WST-1, OD450 nm, read-out: cell viability (survival rate), HepG2",96%
same,viability at 10 µM,"[3]; A-375, 72 h, drug 10 μM, 72 hours, WST-1, OD450 nm, read-out: cell viability (survival rate), A375",113%
same,viability at 10 µM,[4],69.8%
same,viability at 10 µM,"[5]; HL-60, 72 h, drug 10 μM, 72 hours, WST-1, OD450 nm, read-out: cell viability (survival rate), HL-60",92.2%
same,viability at 10 µM,"[6]; NCI-H1650, 72 h, drug 10 μM, 72 hours, WST-1, OD450 nm, read-out: cell viability (survival rate), H1650",84.3%
same,viability at 10 µM,"[7]; 72 h, drug 10 μM, 72 hours, WST-1, OD450 nm, read-out: cell viability (survival rate), HeLa",91.3%
same,viability at 10 µM,"[8]; MKN-45, 72 h, drug 10 μM, 72 hours, WST-1, OD450 nm, read-out: cell viability (survival rate), MKN-45",85.5%
same,viability at 10 µM,"[9]; A549, 72 h, drug 10 μM, 72 hours, WST-1, OD450 nm, read-out: cell viability (survival rate), A549",84%
same,viability at 10 µM,"[10]; 72 h, drug 10 μM, 72 hours, WST-1, OD450 nm, read-out: cell viability (survival rate), PC3",91.9%
same,viability at 10 µM,"[11]; 72 h, drug 10 μM, 72 hours, WST-1, OD450 nm, read-out: cell viability (survival rate), AGS",89.4%
same,viability at 10 µM,[12]; [29],98.8%
CN(C)c1cc(NC(=O)CNC(C)(C)C)c(O)c2c1C[C@H]1C[C@H]3[C@H](N(C)C)C(O)=C(C(N)=O)C(=O)[C@@]3(O)C(O)=C1C2=O [Tigecycline],viability at 10 µM,[14],66.2%
same,viability at 10 µM,"[1]; 72 h, TSGH-8301, repeated experiment, read-out: The results of antibiotic drug inhibiting cancer cell lines (cell viability analysis), TSGH-8301",113%
same,viability at 10 µM,[1]; [21],98.5%
same,viability at 10 µM,"[13]; read-out: The results of antibiotic drug inhibiting cancer cell lines (cell viability analysis), HepG2, HepG2, repeated experiment",97.2%
same,viability at 10 µM,[13]; [22],102%
same,viability at 10 µM,"[2]; MCF7, 72 h, read-out: The results of antibiotic drug inhibiting cancer cell lines (cell viability analysis), MCF-7, MCF-7, repeated experiment",79.1%
same,viability at 10 µM,"[2]; MCF7, 72 h, read-out: cell viability (survival rate), MCF7, drug 10 μM, 72 hours, WST-1, OD450 nm",71.1%
same,viability at 10 µM,"[3]; A-375, 72 h, read-out: The results of antibiotic drug inhibiting cancer cell lines (cell viability analysis), A375, A375, repeated experiment",83.2%
same,viability at 10 µM,[3]; [23],52.2%
same,viability at 10 µM,NIH: OVCAR-3,91.1%
same,viability at 10 µM,[15],93.4%
same,viability at 10 µM,TOV-21G,67.1%
same,viability at 10 µM,AsPC-1,86.5%
same,viability at 10 µM,[5]; [24],97.6%
same,viability at 10 µM,[16],100%
same,viability at 10 µM,"[6]; NCI-H1650, 72 h, read-out: The results of antibiotic drug inhibiting cancer cell lines (cell viability analysis), H1650, H1650, repeated experiment",66.9%
same,viability at 10 µM,[6]; [25],53.1%
same,viability at 10 µM,"[7]; 72 h, read-out: The results of antibiotic drug inhibiting cancer cell lines (cell viability analysis), HeLa, repeated experiment",102%
same,viability at 10 µM,BxPC-3,75.6%
same,inhibition effect on different cancer cell lines,cancer cell lines,significant inhibition effect
same,viability at 10 µM,T24,109%
same,viability at 10 µM,[17],79.9%
same,viability at 10 µM,"[8]; MKN-45, 72 h, read-out: The results of antibiotic drug inhibiting cancer cell lines (cell viability analysis), MKN-45, MKN-45, repeated experiment",114%
same,viability at 10 µM,"[8]; MKN-45, 72 h, read-out: cell viability (survival rate), MKN-45, drug 10 μM, 72 hours, WST-1, OD450 nm",89.2%
same,viability,[18],89.7%
same,viability at 10 µM,"[9]; A549, 72 h, read-out: The results of antibiotic drug inhibiting cancer cell lines (cell viability analysis), A549, A549, repeated experiment",91.5%
same,viability at 10 µM,[9]; [26],55.9%
same,viability at 10 µM,"[10]; 72 h, read-out: The results of antibiotic drug inhibiting cancer cell lines (cell viability analysis), PC-3, PC-3, repeated experiment",112%
same,viability at 10 µM,[10]; [27],83%
same,viability at 10 µM,U-2OS,84%
same,viability at 10 µM,[19],100%
same,viability at 10 µM,"[11]; 72 h, read-out: The results of antibiotic drug inhibiting cancer cell lines (cell viability analysis), AGS, repeated experiment",90.6%
same,viability at 10 µM,[11]; [28],49.4%
same,viability at 10 µM,[20],106%
same,viability at 10 µM,"[12]; 72 h, read-out: The results of antibiotic drug inhibiting cancer cell lines (cell viability analysis), LoVo, repeated experiment",96%
same,viability at 10 µM,[12]; [29],82.4%
